Data on 4 compounds can be found in US10221439B2, “Sensors, methods and kits for detecting nicotinamide adenine dinucleotides” (Max-Planck-Gesellschaft zur Förderung der Wissenschaften …, priority 2015, dated 2019).

In general, Kd refers to the free concentration of one partner at which half of the binding sites on the other are occupied at equilibrium, for simple one-to-one binding.

One data set concerns U2OS cells. The experiment in a line: Live cells perfusion experiment with sensor expressed in the cytosol. The data set is classed as cell-based. The following applies: for sensor response (ratio TMR/SiR, NADPH/NADP^+): 100 μM perfused on U2OS cells. How it is done:
Semi-stable U2OS (SPR-Halo-p30-SNAP cloned in a pEBTet vector; see Bach et al. FEBS J. 2007 Feb.; 274(3):783-90 for the description of pEBTet) freshly trypsinated are diluted 5-fold with DMEM GlutaMax+10% FBS and 1 μg/mL puromycin. They are plated (2 mL) in previously sterilized and poly-L-ornithine coated (1 h incubation) glass coverslips (20×20 mm, VWR) in 12-well plate (TPP). On day 2, the expression is induced by 100 ng/mL doxycycline for ˜24 h. […] On day 4, the cells are washed 3 times with DMEM GlutaMax+10% FBS without phenol red (10 min incubation, 37° C., 5% CO2 between each step). After 30 min of incubation, the cells are ready for imaging. Glass coverslips with labelled U2OS cells were transferred to a Cytoo chamber (44×34×10 mm). Gravity fed perfusion of the chamber was performed at a flow rate of 1 mL/min. Time-course experiments of sensor imaging were performed using a Leica LAS AF 7000 wide-field microscope equipped with a 63× plan Apochromat 1.40 NA oil immersion objective lens. A xenon arc lamp was used for imaging of the U2OS cells. For each frame, the two channels (donor and FRET) were measured consecutively with an interval of 10 s between the two emission channels. The filter set Cy3/Cy5 was used for FRET ratio imaging with excitation at 530/35 and emission at 580/40 (Cy3) as well as excitation at 635/30 and emission at 700/72 (Cy5). If not indicated otherwise, the image size was […]. The reagent perfused during the experiment (H2O2, SPY) were dissolved in HBSS (Lonza). HBSS solution was continuously perfused during the other time point of the experiment.

For data set [1] the following is noted: cited from earlier work.
The target in the next data set is Wild-type human SPR (Homo sapiens, UniProt P35270). The following applies: cited from earlier work.

“Also recorded” adds a separate entry of the source.

Wild-type human SPR, sequence (P35270 whole entry): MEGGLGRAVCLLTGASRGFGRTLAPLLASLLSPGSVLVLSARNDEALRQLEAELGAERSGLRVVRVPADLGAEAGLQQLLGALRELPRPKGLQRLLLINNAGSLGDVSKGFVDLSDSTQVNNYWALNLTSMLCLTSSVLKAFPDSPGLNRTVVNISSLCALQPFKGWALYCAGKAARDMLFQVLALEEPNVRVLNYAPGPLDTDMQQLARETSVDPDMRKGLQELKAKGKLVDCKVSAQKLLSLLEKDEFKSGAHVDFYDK

`Nc1ccc(S(=O)(=O)Nc2ccccn2)cc1` [sulfapyridine]: in the data set with U2OS cells (2 mM perfused on U2OS cells), the “sensor response (ratio TMR/SiR)” value is listed as “increased ratio TMR/SiR; also recorded: fully open the sensor”. Further, the “pKa of the sulfonamide proton” value in data set [1] is given as 8.4.
Regarding `OO` [H2O2, hydrogen peroxide], the figures for the “sensor response (ratio TMR/SiR, NADPH/NADP^+)” value in the data set on U2OS cells and in the data set on U2OS cells (listed as hydrogen peroxide) were “decreased NADPH/NADP^+ ratio” and “sharp decrease of the ratio”, respectively.
For “nicotinamide adenine dinucleotide phosphate [NADPH]”, the Kd on Wild-type human SPR is 1 µM.
For the compound “nicotinamide adenine dinucleotide phosphate [NADP^+]”, the Kd at Wild-type human SPR is 10 µM.
